# Reference: patent US9714244B2, “Substituted pyrido[4,3-d]pyrimidines as Wee-1 inhibitors” (ALMAC DISCOVERY LIMITED, priority 2013, dated 2017)
# Counter-ions that a name gives are not always drawn. Like-named read-outs stand apart in the source and are kept apart here.
# Key:
# [1] = test system: phospho-cdc2 (Tyr15) in HT-29 cells; assay: Effect on phosphorylation of cdc2 at Tyr15 in HT-29 cells (PathScan ELISA); format: cell-based; conditions: Homo sapiens, HT-29, 8 h; HT29 cells, eight hours incubation; read-out: HT29 pCDC2 activity
# Method: Method 2: Determining the effect of compounds on the phosphorylation of cdc2 at Tyr15
# The colorectal cancer cell lines HT-29 and HCT-116 were purchased from the ATCC and routinely maintained in McCoy's Medium (Invitrogen) supplemented with 10% Foetal Calf Serum.
# The cells were trypsinised from their growing vessel and counted, 100 μL of cell suspension containing 6000 cells was pipetted into black 96 well Co-star plates and incubated overnight to allow adherence to the surface at a temperature of 37° C. and an atmosphere of 5% CO2. Test compounds were formulated in DMSO and diluted in foetal calf serum supplemented medium. Incubating medium was removed by aspiration and diluted drug supplemented medium added to each well.
# The plate was returned to the incubator for an additional eight hours at 37° C. and an atmosphere of 5% CO2. Post incubation, the drug supplemented medium was aspirated from each well and the cells were washed once in ice-cold phosphate buffered saline (PBS). 100 μL of cell lysis buffer (Cell Signalling Technologies #9803) containing 20 mM Tris, 150 mM NaCl, 1 mM EDTA, 1 mM EGTA, 1% Triton-X100, 2.5 mM sodium pyrophosphate, 1 mM glycerophosphate, 1 mM Na3VO4 and 1 μg/mL leupeptin was added to each well of the 96 well plate and incubated at 4° C. for 30 min. The samples on the plate were snap frozen at −80° C. until required.
# Immediately before the continuation of the assay, the sample plate was thawed and centrifuged at 4° C. for 10 min and the supernatant transferred to secondary tubes or 96 well plate.
# Cell supernatant was mixed in a ratio of 1:1 with sample dilutent buffer and vortexed for one minute. 100 μL of diluted sample was pipetted into pre-coated plates containing a rabbit polyclonal antibody for phospho-cdc2 (Tyr15) (Cell Signalling Technologies PathScan kit #7176). The plate was sealed and incubated overnight at 4° C.
# The plate seal was removed and the well contents aspirated, followed by 3×5 min washes with 200 μL of diluted wash buffer. Between each wash the plate was tapped firmly onto blotting paper to ensure the removal of all kit solution. 100 μL of kit detection antibody was added to each well and the plate re-sealed and incubated at 37° C. for 1 h. Post incubation the plate was washed and processed in a similar manner to that previously described.
# 100 μL of horseradish peroxidise-linked secondary antibody was added to each test well, the plate sealed and incubated for thirty minutes at 37° C. Post incubation, the plate was washed as previously stated, followed by the addition of 100 μL of 3,3′,5,5′ tetramethylbenzidine (TMB reagent). The plate was sealed and incubated at RT for 30 min.
# 100 μL of stop solution was added to each well and the underside of the plate wiped with a lint-free tissue, prior to spectrophotometric determination. Absorbance from each well was read at 450 nm within 30 min of the addition of the stop solution.
# The percentage of phospho-cdc2 was calculated compared to DMSO control and plotted versus the concentration of inhibitor using GraphPad Prism. Data was fitted using non-linear regression analysis and IC50 values generated.
# [2] = target: human ether a go-go related gene (hERG) K+ channel (Homo sapiens (Human), UniProt Q12809); assay: hERG inhibition, IonWorks patch clamp electrophysiology; format: cell-based; conditions: 8-point curve from 11 μM
# Method: Compounds were tested for inhibition of the human ether a go-go related gene (hERG) K^+ channel using IonWorks patch clamp electrophysiology at Essen BioScience.
# Wee-1 kinase = Wee-1 kinase (Homo sapiens (Human), UniProt P30291); assay: Measurement of Wee-1 kinase activity (ADP-Glo); format: biochemical
# Method: Method 1: Measurement of Wee-1 kinase activity
# In the measurement of Wee-1 activity, a commercial peptide Poly(Lys Tyr(4:1)) hydrobromide was purchased from Sigma Aldrich and used as the substrate. Activated Wee-1 kinase was purchased from Invitrogen (PV3817) and an ADP-Glo luminescent kit was purchased from Promega.
# All reactions took place in […] volumes in reaction buffer containing 40 mM Tris-HCl and 20 mM magnesium chloride, supplemented with 0.1 mg/mL bovine serum albumin and 2 mM DTT. Compounds were serially diluted in buffer and 5 μL of each concentration pipetted into a white 384 well plate (Sigma Aldrich M6186). A 5 μL aliquot of the Wee-1 enzyme was added to each well and the plate centrifuged for 1 min to ensure mixing of the enzyme and inhibitor.
# The plate was incubated at room temperature for 30 minutes before the addition of 2.0 μg/mL of substrate and 30 μM ATP in a 5 μL aliquot. The plate was centrifuged for one minute and incubated for 1 h at RT.
# 15 μL of ADP-Glo stop reagent was added to each well to quench the reaction and deplete unconverted ATP. The plate was incubated for a further 40 min in the dark at RT.
# 30 μL of ADP-Glo kinase detection reagent was added to each well, converting ADP to ATP, catalysing the generation of luciferin by luciferase. The plate was shaken for 1 min, and incubated in the dark for an additional hour.
# Luminescence from each well was detected using the Biotek Synergy4 HD plate reader and the percentage inhibition of kinase activity calculated for each inhibitor tested. Positive (kinase only) and negative (no kinase) controls were added to each plate to ensure specific interaction of kinase and inhibitor. The IC50 concentration for each inhibitor was calculated by plotting the percentage kinase inhibition against concentration of inhibitor and the curve generated by non-linear regression fitting.
# [3] = CLint estimates using human liver microsomes; format: in vitro ADME; conditions: pH 7.4, read-out: HLM activity (HLM CLint)
# Method: Method for the Determination of CLint Estimates Using Human Liver Microsomes
# Test compounds (final concentration=1 μM; final DMSO concentration=0.1%) were incubated in 0.1M phosphate buffer pH 7.4 with human liver microsomes (0.5 mg of protein/mL) at 37° C. Reactions were started by addition of NADPH in 0.1M phosphate buffer pH 7.4 (final concentration 1 mM). 40 μL aliquots were removed at 2, 5, 10, 15, 20, 30, 40 and 50 min. Reactions were quenched in 80 μL of ice-cold methanol. Samples were subsequently frozen overnight then centrifuged at 3500 rpm for 20 min at 4° C. The supernatants were removed and transferred into analytical plates and analysed by LC/MS/MS.
# All samples were analysed on a Waters Acquity I-Class coupled to a Waters Xevo TQD mass spectrometer. A Waters BEH C18 2.1×50 mm 1.7 μm column was used and mobile phases were water and methanol containing 0.1% formic acid as modifier. Analysis was by multiple reaction monitoring and conditions were optimised for each test compound.
# From a plot of ln peak area against time, the gradient of the line is determined. Subsequently, half-life and intrinsic clearance are calculated using the following equations.
# [4] = Human hepatocyte assay CLint; format: in vitro ADME; conditions: hepatocytes
# Method: (§1) Compounds of the present invention have good stability in human and/or rat hepatocyte incubations. In particular, representative examples 7, 8, 13, 18, 20 have CLint of <20 μL/min/10^6 cells in a human hepatocyte assay and/or <40 μL/min/10^6 cells in a rat hepatocyte assay.
# [5] = Rat hepatocyte assay CLint; format: in vitro ADME; conditions: hepatocytes
# Method: as §1
# Sequence of human ether a go-go related gene (hERG) K+ channel (Q12809 whole entry): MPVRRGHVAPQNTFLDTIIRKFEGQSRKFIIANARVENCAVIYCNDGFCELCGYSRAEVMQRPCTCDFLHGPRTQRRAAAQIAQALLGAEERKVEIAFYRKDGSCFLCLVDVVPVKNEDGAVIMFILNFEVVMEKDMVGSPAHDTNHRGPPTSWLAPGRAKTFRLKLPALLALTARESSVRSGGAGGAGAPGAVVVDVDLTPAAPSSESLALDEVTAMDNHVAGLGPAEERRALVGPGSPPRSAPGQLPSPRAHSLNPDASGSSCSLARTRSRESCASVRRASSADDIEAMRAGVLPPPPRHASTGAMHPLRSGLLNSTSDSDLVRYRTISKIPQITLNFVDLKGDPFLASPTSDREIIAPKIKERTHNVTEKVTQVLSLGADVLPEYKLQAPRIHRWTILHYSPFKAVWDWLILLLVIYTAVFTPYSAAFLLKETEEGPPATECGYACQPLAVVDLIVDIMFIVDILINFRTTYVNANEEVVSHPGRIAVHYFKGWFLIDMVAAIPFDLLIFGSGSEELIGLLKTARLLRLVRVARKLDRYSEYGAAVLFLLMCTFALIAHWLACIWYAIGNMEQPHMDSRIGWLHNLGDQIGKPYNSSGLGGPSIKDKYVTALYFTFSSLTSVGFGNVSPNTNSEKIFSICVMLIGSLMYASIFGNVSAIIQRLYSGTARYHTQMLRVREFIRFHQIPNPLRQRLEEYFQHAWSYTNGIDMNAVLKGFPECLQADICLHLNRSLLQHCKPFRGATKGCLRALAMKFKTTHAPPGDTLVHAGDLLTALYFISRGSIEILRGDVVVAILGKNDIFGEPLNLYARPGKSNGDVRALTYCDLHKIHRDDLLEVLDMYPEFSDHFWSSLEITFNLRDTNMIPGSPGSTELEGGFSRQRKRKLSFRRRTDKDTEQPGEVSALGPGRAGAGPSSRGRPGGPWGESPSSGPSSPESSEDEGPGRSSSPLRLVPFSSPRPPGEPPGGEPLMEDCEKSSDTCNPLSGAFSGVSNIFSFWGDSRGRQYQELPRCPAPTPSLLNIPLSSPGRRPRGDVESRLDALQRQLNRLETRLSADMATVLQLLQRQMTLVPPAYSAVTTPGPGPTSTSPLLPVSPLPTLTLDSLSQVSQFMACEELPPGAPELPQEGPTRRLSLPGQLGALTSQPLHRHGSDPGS
# Sequence of Wee-1 kinase (P30291 whole entry): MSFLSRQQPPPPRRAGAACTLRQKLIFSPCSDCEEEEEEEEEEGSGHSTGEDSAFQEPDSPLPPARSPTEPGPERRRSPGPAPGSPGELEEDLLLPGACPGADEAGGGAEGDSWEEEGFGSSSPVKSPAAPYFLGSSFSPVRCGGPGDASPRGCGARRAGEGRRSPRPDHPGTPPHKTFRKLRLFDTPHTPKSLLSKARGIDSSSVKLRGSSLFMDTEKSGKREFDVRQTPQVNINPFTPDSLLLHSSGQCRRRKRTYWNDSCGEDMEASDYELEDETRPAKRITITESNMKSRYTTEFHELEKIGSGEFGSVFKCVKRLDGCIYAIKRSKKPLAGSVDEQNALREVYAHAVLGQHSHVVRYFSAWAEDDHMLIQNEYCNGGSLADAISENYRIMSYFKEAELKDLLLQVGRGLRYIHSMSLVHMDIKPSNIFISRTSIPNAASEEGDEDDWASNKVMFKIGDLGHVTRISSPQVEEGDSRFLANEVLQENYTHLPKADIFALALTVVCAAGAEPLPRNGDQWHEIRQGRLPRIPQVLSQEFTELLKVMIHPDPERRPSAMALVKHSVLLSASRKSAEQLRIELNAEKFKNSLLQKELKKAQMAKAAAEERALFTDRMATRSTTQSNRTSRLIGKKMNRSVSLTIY
IC50 [1] [nM],IC50 (Wee-1 kinase; read-out: Wee-1 IC50 activity) [nM],microsomal CLint at 1 μM [3] [µL/min/mg],hepatocyte CLint [4] [µL/min/1e6 cells],hepatocyte CLint [5] [µL/min/1e6 cells],SMILES,IC50 [2] [nM],IC50 (Wee-1 kinase) [nM]
100 to 1000,< 10,≤ 20,–,–,"Cc1cn(-c2c(Cl)cccc2Cl)c(=O)c2cnc(Nc3ccc(N4CCNCC4)cc3)nc12 [Example 2, 6-(2,6-Dichlorophenyl)-8-methyl-2-((4-(piperazin-1-yl)phenyl)amino)pyrido[4,3-d]pyrimidin-5(6H)-one]",≥ 10000,–
100 to 1000,< 10,≤ 20,< 20,< 40,"CN1CCN(c2ccc(Nc3ncc4c(=O)n(-c5c(Cl)cccc5Cl)ccc4n3)cc2CO)CC1 [Example 8, 6-(2,6-Dichlorophenyl)-2-((3-(hydroxymethyl)-4-(4-methylpiperazin-1-yl)phenyl)amino)pyrido[4,3-d]pyrimidin-5(6H)-one]",–,–
100 to 1000,< 10,≤ 20,–,–,"CN1CCC(c2ccc(Nc3ncc4c(=O)n(-c5c(Cl)cccc5Cl)ccc4n3)cc2)CC1 [Example 10, 6-(2,6-Dichlorophenyl)-2-((4-(1-methylpiperidin-4-yl)phenyl)amino)pyrido[4,3-d]pyrimidin-5(6H)-one, HCl]",1000 to 10000,–
≤ 100,< 10,> 20,–,–,"O=c1c2cnc(Nc3ccc(N4CCN(CCO)CC4)cc3)nc2ccn1-c1c(Cl)cccc1Cl [Example 21, 6-(2,6-Dichlorophenyl)-2-((4-(4-(2-hydroxyethyl)piperazin-1-yl)phenyl)amino)pyrido[4,3-d]pyrimidin-5(6H)-one]",–,–
≤ 100,< 10,> 20,–,–,"NCC#Cc1cn(-c2c(Cl)cccc2Cl)c(=O)c2cnc(Nc3ccc(N4CCOCC4)cc3)nc12 [Example 22, 8-(3-Aminoprop-1-yn-1-yl)-6-(2,6-dichlorophenyl)-2-((4-morpholinophenyl)amino)pyrido[4,3-d]pyrimidin-5(6H)-one]",–,–
≤ 100,< 10,> 20,–,–,"O=c1c2cnc(Nc3ccc(N4CCNCC4)cc3)nc2c(-c2cccnc2)cn1-c1c(Cl)cccc1Cl [Example 23, 6-(2,6-Dichlorophenyl)-2-((4-(piperazin-1-yl)phenyl)amino)-8-(pyridin-3-yl)pyrido[4,3-d]pyrimidin-5(6H)-one]",–,–
100 to 1000,< 10,≤ 20,–,–,"Cc1cc(Nc2ncc3c(=O)n(-c4ccccc4Cl)ccc3n2)ccc1N1CCNCC1 [Example 24, 6-(2-Chlorophenyl)-2-((3-methyl-4-(piperazin-1-yl)phenyl)amino)pyrido[4,3-d]pyrimidin-5(6H)-one]",–,–
100 to 1000,< 10,≤ 20,–,–,"O=c1c2cnc(Nc3ccc(N4CCNCC4)c(Cl)c3)nc2ccn1-c1c(Cl)cccc1Cl [Example 27, 2-((3-Chloro-4-(piperazin-1-yl)phenyl)amino)-6-(2,6-dichlorophenyl)pyrido[4,3-d]pyrimidin-5(6H)-one]",–,–
≤ 100,< 10,≤ 20,–,–,"O=c1c2cnc(Nc3ccc(N4CCNCC4)c(F)c3)nc2ccn1-c1c(Cl)cccc1Cl [Example 29, 6-(2,6-Dichlorophenyl)-2-((3-fluoro-4-(piperazin-1-yl)phenyl)amino)pyrido[4,3-d]pyrimidin-5(6H)-one]",–,–

SMILES,IC50 [1] [nM],IC50 (Wee-1 kinase; read-out: Wee-1 IC50 activity) [nM],microsomal CLint at 1 μM [3] [µL/min/mg],hepatocyte CLint [4] [µL/min/1e6 cells],hepatocyte CLint [5] [µL/min/1e6 cells],IC50 [2] [nM],IC50 (Wee-1 kinase) [nM]
"CN(C)CCc1ccc(Nc2ncc3c(=O)n(-c4c(Cl)cccc4Cl)ccc3n2)cc1 [Example 11, 6-(2,6-Dichlorophenyl)-2-((4-(2-(dimethylamino)ethyl)phenyl)amino)pyrido[4,3-d]pyrimidin-5(6H)-one, HCl]",100 to 1000,10 to 200,> 20,–,–,1000 to 10000,–
"COc1cc(Nc2ncc3c(=O)n(-c4c(Cl)cccc4Cl)ccc3n2)ccc1N1CCN(C)CC1 [Example 12, 6-(2,6-Dichlorophenyl)-2-((3-methoxy-4-(4-methylpiperazin-1-yl)phenyl)amino)pyrido[4,3-d]pyrimidin-5(6H)-one, HCl]",≤ 100,–,> 20,–,–,1000 to 10000,10 to 200
"CNCCOc1ccc(Nc2ncc3c(=O)n(-c4c(Cl)cccc4Cl)ccc3n2)cc1 [Example 16, 6-(2,6-Dichlorophenyl)-2-((4-(2-(methylamino)ethoxy)phenyl)amino)pyrido[4,3-d]pyrimidin-5(6H)-one, HCl]",100 to 1000,–,≤ 20,–,–,≥ 10000,10 to 200
"CC(C)N1CCN(c2ccc(Nc3ncc4c(=O)n(-c5c(Cl)cccc5Cl)ccc4n3)cc2)CC1 [Example 17, 6-(2,6-Dichlorophenyl)-2-((4-(4-isopropylpiperazin-1-yl)phenyl)amino)pyrido[4,3-d]pyrimidin-5(6H)-one]",100 to 1000,10 to 200,> 20,–,–,1000 to 10000,–
"O=c1c2cnc(Nc3ccc(N4CCOCC4)cc3)nc2ccn1-c1c(Cl)cccc1Cl [Example 19, 6-(2,6-Dichlorophenyl)-2-((4-morpholinophenyl)amino)pyrido[4,3-d]pyrimidin-5(6H)-one]",≥ 1000,–,> 20,–,–,≥ 10000,10 to 200
"O=c1c2cnc(Nc3cc(F)c(N4CCNCC4)c(F)c3)nc2ccn1-c1c(Cl)cccc1Cl [Example 30, 6-(2,6-Dichlorophenyl)-2-((3,5-difluoro-4-(piperazin-1-yl)phenyl)amino)pyrido[4,3-d]pyrimidin-5(6H)-one]",≥ 1000,10 to 200,≤ 20,–,–,–,–
